This note sets out measurements from patent US9980943B2, “Methods of treating muscular dystrophy” (BOARD OF REGENTS OF THE NEVADA SYSTEM OF HIGHER EDUCATION, …, priority 2013, dated 2018).

Read-outs that look alike come from different tables or passages of the source.

The test system of the assay is α7 integrin (LacZ reporter in α7LacZ+/− myoblasts). Nature of the assay: qHTS of the LOPAC library and MLSMR (online screen, α7LacZ+/− myoblasts). As to conditions: Mus musculus, Myoblast; for activation at 0.307 µM: read-out: Activity at 0.307 uM [%] **; for activation at 1.53 µM: read-out: Activity at 1.530 uM [%] **; for activation at 7.66 µM: read-out: Activity at 7.660 uM [%] **; for activation at 38.3 µM: read-out: Activity at 38.30uM [%] **; for EC50: read-out: Fit LogAC50 (converted). A general note: qHTS replaces the single test concentration by a dilution series.

Setting [1] is: 48 h, read-out: Fit Infinite Activity [%].

Procedure: A total of 250 α7LacZ^+/− myoblasts at passage 13 were dispensed using a multidrop (Thermo) into black low base tissue culture treated microclear aurora plates in 6 μl media containing DMEM without phenol, 5% FBS, 1× GluMax and 1× Penicillin/Streptomycin. […] Compounds were then dispensed using a Kalypsys pintool to deliver 23 nl/well compounds in DMSO (diluted into 6 μl resulting in a 1:260 dilution of compound). […] After incubation with compound, 5 μl of the media was aspirated using the Kalypsys washer/dispenser and 3 μl of the Mammalian Protein Extraction Reagent (MPER) lysis buffer (Thermo Fisher) was added. […] The plates were then incubated for 10 minutes at room temperature.
The assay was adapted for a high-throughput screen with the fully automated Kalypsys robotic system using 1536 well plates at NCGC.

On to `COc1ccc(Nc2ncnc3ccc(C)cc23)cc1` [Compound 58], for which the EC50 was 3.55 µM. Further, where the note is “48 h”, the activation at 0.307 µM is -29.7%, the activation at 1.53 µM worked out at 3.35%, the activation at 7.66 µM is 49.1% and the activation at 38.3 µM amounted to 82.8%. The Emax under setting [1] was determined as 95.6%. Where the note is “read-out: Max Response [%]”, the Emax was determined as 82.8%.
With `Cc1ccc(NC(=O)COc2ccccc2CNC(C)(C)CC(C)(C)C)cc1` [Compound 131], for the setting “48 h”, the activation at 0.307 µM turned out to be 10.7%, the activation at 1.53 µM came to 7.12%, the activation at 7.66 µM is 16.2% and the activation at 38.3 µM was determined as 182%. Further, under setting [1], the Emax is 184%. Also, the Emax (read-out: Max Response [%]) is 182%.
Regarding `COC(=O)C1=C(C)N=C(C)/C(=C(/O)OC)C1c1ccccc1OCc1c(C)no[n+]1[O-]` (stereo not shown) [Compound 12], the EC50 is 2.82 µM. Under “48 h”, the activation at 0.307 µM came out at 12.3%, the activation at 1.53 µM came out at 36.5%, the activation at 7.66 µM was found to be 84.6% and the activation at 38.3 µM was 100%. The Emax under setting [1] worked out at 102%.
For the compound `Cc1ccc(-c2onc3ccc(C(=O)/C=C/N(C)C)cc23)cc1` [Compound 39], the EC50 is 3.55 µM. Further, under “48 h”, the activation at 0.307 µM is -7.76%, the activation at 1.53 µM came out at 5.51%, the activation at 7.66 µM was 52.9% and the activation at 38.3 µM stood at 69.1%. For the same compound, the Emax under setting [1] is 69.5%.
Take `CC(C)/N=C(\S)NN=C1CCCCCCCCCCC1` [Compound 36]: the EC50 is 3.16 µM. For the same compound, under “48 h”, the activation at 0.307 µM turned out to be 7.67%, the activation at 1.53 µM stood at 25.7%, the activation at 7.66 µM is 65.1% and the activation at 38.3 µM is 78.6%. In addition, the Emax under setting [1] came out at 81.2%.
`CCS(=O)(=O)N1CCN(c2ccc([N+](=O)[O-])c(NCC3CCCO3)c2)CC1` (stereo not shown) [Compound 204]: the EC50 is 10 µM. For the setting “48 h”, the activation at 0.307 µM stood at 0.881%, the activation at 1.53 µM came to 0.157%, the activation at 7.66 µM turned out to be 20.1% and the activation at 38.3 µM was found to be 70.3%. In addition, the Emax under setting [1] was determined as 70.8%. Besides, where the note is “read-out: Max Response [%]”, the Emax was found to be 70.3%.
`CCCCNC(=O)CSc1nnc(Cc2ccc(Cl)c(Cl)c2)c(O)n1` [Compound 34]: the EC50 is 1.41 µM. Also, for the setting “48 h”, the activation at 0.307 µM stood at 9.41%, the activation at 1.53 µM stood at 43.8%, the activation at 7.66 µM was 74.3% and the activation at 38.3 µM was found to be 75.4%. Under setting [1], the Emax was determined as 76.4%.
Consider `NS(=O)(=O)c1ccc(NC(=O)c2cc(-c3ccccc3O)[nH]n2)cc1` [Compound 105], for which the EC50 was 10 µM. Where the note is “48 h”, the activation at 0.307 µM turned out to be 15.4%, the activation at 1.53 µM was 17.9%, the activation at 7.66 µM amounted to 44.2% and the activation at 38.3 µM stood at 112%. In addition, the Emax under setting [1] is 113%. For the same compound, the Emax (read-out: Max Response [%]) worked out at 112%.
Regarding `Cc1nc2c(cnn2-c2ccccc2)c(=O)n1/N=C/c1ccccc1` [Compound 171], the EC50 is 10 µM. In addition, under “48 h”, the activation at 0.307 µM came out at 10%, the activation at 1.53 µM turned out to be 10.2%, the activation at 7.66 µM was determined as 28.1% and the activation at 38.3 µM was 68.4%. For the same compound, the Emax under setting [1] stood at 69.5%. Further, the Emax (read-out: Max Response [%]) is 68.4%.
As for `c1ccc(CN2CCCC3(CCCN(Cc4nc(CC5CC5)no4)C3)C2)cc1` (stereo not shown) [Compound 200], under “48 h”, the activation at 0.307 µM was -40.9%, the activation at 1.53 µM is -35.8%, the activation at 7.66 µM was found to be 1.57% and the activation at 38.3 µM came to 46.2%. Also, under setting [1], the Emax turned out to be 56.6%. Moreover, the Emax (read-out: Max Response [%]) was found to be 46.2%.
Turning to `Cc1cc(NC(=O)CCC(=O)N(Cc2cccnc2)C(C(=O)NC(C)(C)C)c2ccccc2Cl)no1` (stereo not shown) [Compound 29], the EC50 was 3.98 µM. For the setting “48 h”, the activation at 0.307 µM was -23.8%, the activation at 1.53 µM was -13.5%, the activation at 7.66 µM is 36% and the activation at 38.3 µM was 54.9%. Moreover, under setting [1], the Emax worked out at 55.7%.
